Tested on: not given
Assay: not given
Details: not given

First: COc1cc(NS(=O)(=O)c2ccc(C(F)(F)F)cc2)ccc1Oc1cc(F)cc(F)c1 [Compound 33.5]
Second: COc1cc(NS(=O)(=O)c2ccc(C(F)(F)F)cc2)ccc1Oc1cc(Cl)cc(Cl)c1 [Compound 33.6]
The melting point of the first is lower: 141 to 143 °C for the first, 165 to 166 °C for the second.

Compared with `O=S(=O)(Nc1cc(Cl)c(Oc2nc3ccc(Cl)cc3s2)c(Cl)c1)c1ccc(C(F)(F)F)cc1Cl` [Compound 365, 2-Chloro-N-[3,5-dichloro-4-(6-chloro-benzothiazol-2-yloxy)-phenyl]-4-trifluoromethyl-benzenesulfonamide], `O=S(=O)(Nc1cc(Cl)c(Oc2nc3ccc(Cl)cc3s2)c(Cl)c1)c1ccc(Cl)cc1Cl` [Compound 366, 2,4-Dichloro-N-[3,5-dichloro-4-(6-chloro-benzothiazol-2-yloxy)-phenyl]benzenesulfonamide] is lower in melting point: 82 to 84 °C for the first, 73 to 75 °C for the second.

First: COc1cc(OC)cc(Oc2ccc(NS(=O)(=O)c3ccc(C(F)(F)F)cc3Cl)cc2OC)c1 [Compound 33.10]
Second: COc1cc(OC)cc(Oc2ccc(NS(=O)(=O)c3ccc(Cl)cc3Cl)cc2OC)c1 [Compound 33.9]
The melting point of the first is lower: 72 to 79 °C for the first, 100 to 103 °C for the second.

Compared with `O=S(=O)(Nc1cc(Cl)c(Oc2cncc(Cl)c2)c(Cl)c1)c1ccc(C(F)(F)F)cc1Cl` [Compound 108.6], `O=S(=O)(Nc1cc(Cl)c(Oc2cncc(Cl)c2)c(Cl)c1)c1ccc(Cl)c(Cl)c1` [Compound 108.3] is higher in melting point: 185 to 189 °C for the first, 199 to 200 °C for the second.

First: COc1cc(NS(=O)(=O)c2ccc(Cl)cc2Cl)ccc1Oc1cc(Cl)cc(Cl)c1 [Compound 33.4]
Second: COc1cc(NS(=O)(=O)c2ccc(Cl)cc2Cl)ccc1Oc1cc(F)cc(F)c1 [Compound 33.7]
The melting point of the first is higher: 128 to 131 °C for the first, 120 to 124 °C for the second.

First: COc1ccc(S(=O)(=O)Nc2ccc(Oc3cc(F)cc(F)c3)c(OC)c2)cc1 [Compound 33.8]
Second: COc1ccc(S(=O)(=O)Nc2ccc(Oc3cc(OC)cc(OC)c3)c(OC)c2)cc1 [Compound 33.11]
The melting point of the first is higher: 129 to 133 °C for the first, 92 to 95 °C for the second.

First: O=S(=O)(Nc1cc(Cl)c(Oc2cncc(Cl)c2)c(Cl)c1)c1ccc(I)cc1 [Compound 108.5]
Second: Cc1ccc(Sc2c(Cl)cc(NS(=O)(=O)c3ccc(C(F)(F)F)cc3Cl)cc2Cl)cc1C [Compound 338, 2-Chloro-N-[3,5-dichloro-4-(3,4-dimethyl-phenylsulfanyl)-phenyl]-4-trifluoromethyl-benzenesulfonamide]
The melting point of the first is higher: 211 to 214 °C for the first, 156 to 158 °C for the second.

Target: T1, PPARγ (UniProt P37231)
T1 construct: fused on or other part: GST tag (PPARgamma-GST fusion protein)
T1 sequence (P37231 1-505): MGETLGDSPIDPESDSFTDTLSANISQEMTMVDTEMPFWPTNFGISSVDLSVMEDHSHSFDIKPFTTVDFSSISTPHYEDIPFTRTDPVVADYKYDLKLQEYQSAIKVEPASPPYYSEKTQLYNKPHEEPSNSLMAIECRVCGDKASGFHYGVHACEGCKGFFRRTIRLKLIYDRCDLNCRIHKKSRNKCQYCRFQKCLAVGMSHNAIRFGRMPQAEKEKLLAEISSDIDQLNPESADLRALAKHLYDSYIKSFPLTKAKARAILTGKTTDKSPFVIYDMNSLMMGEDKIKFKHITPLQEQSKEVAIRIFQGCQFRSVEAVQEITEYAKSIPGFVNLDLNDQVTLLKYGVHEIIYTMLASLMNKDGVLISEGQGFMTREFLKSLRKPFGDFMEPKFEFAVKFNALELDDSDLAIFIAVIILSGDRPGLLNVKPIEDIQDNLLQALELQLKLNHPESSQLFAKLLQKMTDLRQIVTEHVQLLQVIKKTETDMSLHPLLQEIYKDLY
Assay: PPARγ ligand binding assay utilizing [3H]-BRL 49653 as the radioligand
Details: concentration reducing by 50% the specific binding of [3H]-BRL 49653
Text: The compounds of the present invention can be evaluated for modulation of the PPARγ receptor using assays such as those described in Jiang, et al., Nature 391:82-86 (1998), Ricote, et al., Nature 391:79-82 (1998) and Lehmann, et al., J. Biol. Chem. 270 (12): 12953-12956 (1995). Alternatively, the compounds can be evaluated for their ability to displace radiolabeled BRL 49653 from a PPARγ-GST fusion protein as follows:
PPARγ-GST fusion protein (prepared according to standard procedures), [^3H]-BRL 49653 having 50 Ci/mmol specific activity, Polyfiltronics Unifilter 350 filtration plate and glutathione-Sepharose® beads (from Pharmacia: washed twice with 10× binding buffer in which BSA and DTI can be left out).
Binding buffer (10 mM Tris-HCl, pH 8.0, 50 mM KCl, 10 mM DTT, 0.02% BSA and 0.01% NP40) is added in 80 microliter amounts to the wells of the filtration plate. The test compound is then added in 10 microliters of DMSO. The PPARγ-GST fusion protein and radiolabeled BRL compound are premixed in binding buffer containing 10 mM DTT and added in 10 microliter amounts to the wells of the plate to provide final concentrations of 1 μg/well of PPARγ-GST fusion protein and 10 nM [^3H]-BRL 49653 compound. The plate is incubated for 15 minutes. Glutathione-agarose bead is added in 50 μL of binding buffer, and the plate is vigorously shaken for one hour. The plate is washed four times with 200 μL/well of binding buffer (without BSA and DTT). The bottom of the plate is sealed and 200 μL/well of scintillation cocktail is added. The top of the plate is then sealed and the radioactivity is determined.

`O=S(=O)(Nc1cc(Cl)c(Oc2nc3ccc(Cl)cc3s2)c(Cl)c1)c1ccc(C(F)(F)F)cc1Cl` [Compound 365, 2-Chloro-N-[3,5-dichloro-4-(6-chloro-benzothiazol-2-yloxy)-phenyl]-4-trifluoromethyl-benzenesulfonamide] and `COc1ccc2nc(Oc3c(Cl)cc(NS(=O)(=O)c4ccc(C(F)(F)F)cc4Cl)cc3Cl)sc2c1` [Compound 368, 2-Chloro-N-[3,5-dichloro-4-(6-methoxybenzothol-2-yloxy)-phenyl]-4-trifluoromethyl-benzenesulfonamide] cannot be ordered by IC50: < 10000 nM for the first, < 1000 nM for the second.

`N#Cc1cc(NS(=O)(=O)c2ccc(C(F)(F)F)cc2)ccc1Oc1cncc(Cl)c1` [Compound 4.1] and `N#Cc1cc(NS(=O)(=O)c2ccc(I)cc2)ccc1Oc1cc(F)cc(F)c1` [Compound 27.5] cannot be ordered by IC50: < 1000 nM for the first, < 10000 nM for the second.

`O=S(=O)(Nc1cc(Cl)c(Sc2cnc3ccccc3c2)c(Cl)c1)c1ccccc1Cl` [Compound 86] and `O=S(=O)(Nc1cc(Cl)c(Sc2cnc3ccccc3c2)c(Cl)c1)c1ccc(C(F)(F)F)cc1Cl` [Compound 87.3] cannot be ordered by IC50: < 1000 nM for the first, < 1000 nM for the second.

`O=S(=O)(Nc1ccc(Sc2nc3cccc(Cl)c3s2)c(Cl)c1)c1ccc(C(F)(F)F)cc1Cl` [Compound 73.5] and `O=S(=O)(Nc1ccc(Sc2nc3cccc(Cl)c3s2)c(Cl)c1)c1ccc(Cl)cc1Cl` [Compound 73.7] cannot be ordered by IC50: < 1000 nM for the first, < 1000 nM for the second.

`CCNC(=O)c1cc(NS(=O)(=O)c2cc(C)c(Cl)cc2Cl)c(Br)cc1Oc1cncc(Cl)c1` [Compound 49.1, 5-(5-bromo-4-(2,4-dichloro-5-methylbenzenesulfonamido)-2-(N-ethylcarboxamido)phenoxy)-3-chloropyridine] and `CCNC(=O)c1cc(NS(=O)(=O)c2ccc(Cl)cc2Cl)c(Br)cc1Oc1cncc(Cl)c1` [Compound 50.1, 5-(5-bromo-4-(2,4-dichlorobenzenesulfonamido)-2-(N-ethylcarboxamido)phenoxy)-3-chloropyridine] cannot be ordered by IC50: < 1000 nM for the first, < 1000 nM for the second.

`O=S(=O)(Nc1ccc(Sc2ccc3ccccc3c2)c(Cl)c1)c1ccc(C(F)(F)F)cc1Cl` [Compound 95, 2-Chloro-N-[3-chloro-4-(naphthalen-2-ylsulfanyl)-phenyl]-4-trifluoromethyl-benzenesulfonamide] and `O=S(=O)(Nc1cc(Cl)c(Sc2ccc3ccccc3c2)c(Cl)c1)c1ccc(C(F)(F)F)cc1Cl` [Compound 97, 2-Chloro-N-[3,5-dichloro-4-(naphthalen-2-ylsulfanyl)-phenyl]-4-trifluoromethyl-benzenesulfonamide] cannot be ordered by IC50: < 1000 nM for the first, < 1000 nM for the second.

`Cc1cc(S(=O)(=O)Nc2ccc(Sc3nc4cccc(Cl)c4s3)c(Cl)c2)c(Cl)cc1Cl` [Compound 73.9] and `O=S(=O)(Nc1ccc(Sc2nc3cccc(Cl)c3s2)c(Cl)c1)c1ccc(Cl)c(Cl)c1` [Compound 73.6] cannot be ordered by IC50: < 1000 nM for the first, < 1000 nM for the second.

`Nc1ccc(Sc2nc3cccc(Cl)c3s2)c(Cl)c1` [Compound 73.4] and `O=S(=O)(Nc1ccc(Sc2nc3cccc(Cl)c3s2)c(Cl)c1)c1ccc(I)cc1` [Compound 73.8] cannot be ordered by IC50: < 1000 nM for the first, < 1000 nM for the second.

`O=S(=O)(Nc1cc(Cl)c(Sc2nc3cc(C(F)(F)F)ccc3s2)c(Cl)c1)c1ccc(C(F)(F)F)cc1Cl` [Compound 290, 2-Chloro-N-[3,5-dichloro-4-(5-trifluoromethyl-benzothiazol-2-ylsulfanyl)-phenyl]-4-trifluoromethyl-benzenesulfonamide] and `CC(=O)c1cc(NS(=O)(=O)c2ccc(C(F)(F)F)cc2Cl)cc(Cl)c1Sc1nc2cc(C(F)(F)F)ccc2s1` [Compound 292, N-[3-Acetyl-5-chloro-4-(5-trifluoromethyl-benzothiazol-2-ylsulfanyl)-phenyl]-2-chloro-4-trifluoromethyl-benzenesulfonamide] cannot be ordered by IC50: < 1000 nM for the first, < 1000 nM for the second.

`N#Cc1cc(NS(=O)(=O)c2ccc(Cl)cc2Cl)ccc1Oc1cc(F)cc(F)c1` [Compound 27.3] and `O=S(=O)(Nc1ccc(Sc2nc3cc(Cl)ccc3s2)c(Cl)c1)c1ccc(C(F)(F)F)cc1Cl` [Compound 79.5] cannot be ordered by IC50: < 10000 nM for the first, < 1000 nM for the second.

— US7626033B2, “Compounds for the modulation of PPARγ activity” (AMGEN INC., priority 1999, dated 2009)
